# Experimental data as given in PubChem BioAssay (NCI).
#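 Dose response: 5 concentrations. Exposure: 48 h. Format: 96-well plates. Endpoint: linear interpolation; highest concentration if not reached. GI50: concentration for 50% inhibition of growth. TGI: total growth inhibition.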
# Experiments:
# Experiment in all cases: growth of human tumour cells (NCI), 48 h
# KM20L2 colon = test system: KM20L2 colon
# M19-MEL melanoma = test system: M19-MEL melanoma
# RXF-631 renal = test system: RXF-631 renal
# SNB-78 CNS = test system: SNB-78 CNS
Compound,TGI (KM20L2 colon) [µM],TGI (M19-MEL melanoma) [µM],TGI (RXF-631 renal) [µM],TGI (SNB-78 CNS) [µM],GI50 (KM20L2 colon) [µM],GI50 (M19-MEL melanoma) [µM],GI50 (RXF-631 renal) [µM],GI50 (SNB-78 CNS) [µM]
COc1ccc(NC(=O)CC(=O)N/N=C/c2ccc(N(CCC#N)S(C)(=O)=O)cc2)cc1,> 100,> 100,> 100,> 100,,,,
O=[N+]([O-])c1ccc(C=NC2CCCCC2)cc1,> 100,> 100,> 100,> 100,,,,
NC(=O)COC(=O)c1c(Cl)nc2sccn12,> 100,> 100,> 100,> 100,,,,
Nc1cccc(S(=O)(=O)NCC(=O)O)c1,> 100,> 100,> 100,> 100,,,,
COc1ccc2c(c1)[n+](=O)c(C(=O)C/C(=N/OCCCc1ccccc1)C(=O)NC13CC4CC(CC(C4)C1)C3)c(C)n2[O-],> 100,> 100,> 100,> 100,,,,
C/C(CC(=O)Nc1cc(C)ccc1C)=N\NC(=O)c1ccncc1,> 100,> 100,> 100,> 100,,,,
Cc1ccc(NC(=O)CC(=O)n2nc(C)c(N=Nc3ccccc3C(=O)O)c2C)cc1,> 100,> 100,> 100,> 100,,,,
CCC[CH2][Sn]1([CH2]CCC)[O]C(=O)CN=Cc2c(ccc3ccccc23)[O]1,2.29,1.23,0.0331,1.4,1.09,0.299,0.0181,0.282
CNC(=O)C1CCc2nnc(-c3ccccc3)n21 (stereo not drawn),> 100,> 100,> 100,> 100,,,,
N#C/C(=C\c1ccc2ccccc2c1)c1ccccc1,34.9,> 100,> 100,84.7,,,,
Cc1c(C(=O)C/C(=N/NC(=O)C[N+](C)(C)C)C(=O)Nc2ccc(Cl)cc2)[n+](=O)c2ccccc2n1O,> 100,> 100,> 100,> 100,,,,
